In patent US20240425499A1, “TYRO3 INHIBITORS” (HALIA THERAPEUTICS, INC., priority 2021, published 2024):

Molecular target: recombinant human TYRO3 (Homo sapiens (Human), UniProt Q06418)
Assay: TYRO3 enzymatic assay (radiometric [32P]-ATP, Poly(Glu,Tyr) substrate)
Type: biochemical
Conditions: recombinant human TYRO3, [32P]-ATP
Protocol: Poly(Glu, Tyr) sodium salt (Glu:Tyr (4:1), quality level 200, molecular weight 5,000-20,000, obtained from Sigma Aldrich, catalogue #P7244, assay concentration 0.20 mg/mL) and recombinant human TYRO3 (obtained from ThermoFisher Scientific, catalogue #PV3828, assay concentration 2 nM) were mixed in assay buffer (20 mM Hepes pH 7.5, 10 mM MgCl2, 1 mM EGTA, 0.02% Brij35, 0.02 mg/ml BSA, 0.1 mM Na3VO4, 2 mM DTT, 1% DMSO, with added MnCl2 at a final concentration of 2 mM). Compounds of interest (in DMSO, serial 3-fold dilution from 10 μM to 0.5 nM) or control (1% DMSO) were dispensed into the kinase reaction mixture by Acoustic technology (Echo550; nanoliter range). After incubation at room temperature for 20 minutes, the kinase reaction was initiated by addition of [^32P]-ATP (Specific activity 10 μCi/μl) and the mixture was incubated at room temperature for 2 hours. The reaction was then stopped by spotting the reaction mixture on strips of phosphocellulose P81 paper. Following washing, the radioactivity of the P81 paper was measured and kinase activity data were expressed as the percent remaining kinase activity in test samples compared to vehicle (dimethyl sulfoxide) reactions. IC50 values and curve fits were obtained using Prism (GraphPad Software).

Chain of recombinant human TYRO3 (Q06418 41-890): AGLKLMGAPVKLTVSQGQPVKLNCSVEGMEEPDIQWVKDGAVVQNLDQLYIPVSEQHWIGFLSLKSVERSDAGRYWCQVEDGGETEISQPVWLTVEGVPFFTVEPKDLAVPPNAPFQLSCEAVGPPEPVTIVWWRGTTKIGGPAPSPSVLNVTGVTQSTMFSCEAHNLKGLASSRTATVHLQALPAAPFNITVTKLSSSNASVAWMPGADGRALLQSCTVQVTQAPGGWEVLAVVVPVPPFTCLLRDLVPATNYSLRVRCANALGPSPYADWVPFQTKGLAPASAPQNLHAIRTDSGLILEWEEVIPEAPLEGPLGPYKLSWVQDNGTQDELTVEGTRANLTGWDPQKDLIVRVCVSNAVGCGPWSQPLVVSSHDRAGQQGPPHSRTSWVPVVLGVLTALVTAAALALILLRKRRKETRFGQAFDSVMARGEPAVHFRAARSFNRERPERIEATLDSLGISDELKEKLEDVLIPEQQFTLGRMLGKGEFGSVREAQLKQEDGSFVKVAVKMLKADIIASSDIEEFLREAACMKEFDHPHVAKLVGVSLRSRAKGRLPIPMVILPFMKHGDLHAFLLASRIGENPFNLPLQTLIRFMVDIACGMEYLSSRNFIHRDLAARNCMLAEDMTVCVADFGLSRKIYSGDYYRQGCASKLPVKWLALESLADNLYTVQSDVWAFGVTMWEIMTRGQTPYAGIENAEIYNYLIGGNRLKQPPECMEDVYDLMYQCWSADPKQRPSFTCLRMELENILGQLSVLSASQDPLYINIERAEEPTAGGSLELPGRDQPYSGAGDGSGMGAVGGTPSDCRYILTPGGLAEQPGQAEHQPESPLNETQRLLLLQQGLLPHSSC

`COc1ccc(-c2c[nH]c3ncc(-c4ccc(CN5CCC6(CC5)CN(C)C6)cc4)cc23)cn1` [compound 42, 7-(4-(3-(6-methoxypyridin-3-yl)-1H-pyrrolo[2,3-b]pyridin-5-yl)benzyl)-2-methyl-2,7-diazaspiro[3.5]nonane] and `COc1ccc(-c2c[nH]c3ncc(-c4ccc(CN5CCC(N(C)C)CC5)cc4)cc23)cn1` [compound 74, 1-(4-(3-(6-methoxypyridin-3-yl)-1H-pyrrolo[2,3-b]pyridin-5-yl)benzyl)-N,N-dimethylpiperidin-4-amine] fall in the same range of IC50: 151 to 500 nM for the first, 151 to 500 nM for the second.

`OC1CCCN(Cc2ccc(-c3cnc4[nH]cc(-c5ccc(C(F)(F)F)nc5)c4c3)cc2)C1` (centres unmarked) [compound 24, 1-(4-(3-(6-(trifluoromethyl)pyridin-3-yl)-1H-pyrrolo[2,3-b]pyridin-5-yl)benzyl)piperidin-3-ol] and `COc1ccc(-c2c[nH]c3ncc(-c4ccc(CN5CCC(O)C5)cc4)cc23)cn1` (centres unmarked) [compound 29, 1-(4-(3-(6-methoxypyridin-3-yl)-1H-pyrrolo[2,3-b]pyridin-5-yl)benzyl)pyrrolidin-3-ol] fall in the same range of IC50: 51 to 150 nM for the first, 51 to 150 nM for the second.

`CC(C)Oc1ccc(-c2c[nH]c3ncc(-c4ccc(CN5CCCC(O)C5)cc4)cc23)cc1C#N` (centres unmarked) [compound 19, 5-(5-(4-((3-hydroxypiperidin-1-yl)methyl)phenyl)-1H-pyrrolo[2,3-b]pyridin-3-yl)-2-isopropoxybenzonitrile] and `OC1CCCN(Cc2ccc(-c3cnc4[nH]c(Cl)c(-c5cccc(F)c5)c4c3)cc2)C1` (centres unmarked) [compound 54, 1-(4-(2-chloro-3-(3-fluorophenyl)-1H-pyrrolo[2,3-b]pyridin-5-yl)benzyl)piperidin-3-ol] fall in the same range of IC50: 51 to 150 nM for the first, 51 to 150 nM for the second.

First: CC1(O)CCCN(Cc2ccc(-c3cnc4[nH]cc(-c5cccc(F)c5)c4c3)cc2)C1 (centres unmarked) [compound 5, 1-(4-(3-(3-fluorophenyl)-1H-pyrrolo[2,3-b]pyridin-5-yl)benzyl)-3-methylpiperidin-3-ol]
Second: CC1(O)CCN(c2ccc(-c3cnc4[nH]cc(-c5ccc6[nH]ccc6c5)c4c3)cc2)CC1 [compound 77, 1-(4-(3-(1H-indol-5-yl)-1H-pyrrolo[2,3-b]pyridin-5-yl)phenyl)-4-methylpiperidin-4-ol]
The IC50 of the first is lower: 51 to 150 nM for the first, 151 to 500 nM for the second.
